From patent EP0603240B1, “SAFENING HERBICIDAL PYRAZOLYLSULFONYLUREAS” (priority 1991, dated 1993)

Assays:
[1] = test system: corn; test: Example 15, Procedure II: Herbicide No. 1 + butylate (No. 10) with antidotes; type: in vivo; conditions: Herbicide No. 1 1.12 and 0.56 kg/ha + Herbicide No. 10 6.72 kg/ha PPI, Table 15
Description: (§1) Containers were filled and compacted with a fumigated silt loam top soil to a depth of about 1.3 cm from the top of the container. A first container was designated as an untreated control, a second container was designated as a herbicide control, and a third container was designated as a herbicide + antidote test container. Each of the containers was seeded with a crop species. A measured amount of herbicide dispersed or dissolved in acetone was applied to a measured quantity of soil. To this same quantity of soil treated with herbicide, there was added a measured amount of antidote dispersed or dissolved in acetone. The quantity of soil treated with the herbicide and antidote was thoroughly mixed to incorporate the herbicide and antidote in the soil uniformly. The seed bed in the third container of soil was covered with the soil treated with the herbicide and antidote and the container was leveled. For each test series, the seed beds of the first and second containers were likewise covered by soil layers. the cover layer of the first container was not treated with herbicide or antidote.
(§2) The containers were then placed on a bench in a greenhouse and sub-irrigated as required for the duration of the test. […] Plant response is measured in terms of percent injury. Antidote efficacy is indicated as the difference in plant injury by the herbicide(s) without the antidote and with the antidote.
(§3) This procedure is the same as Procedure I, but modified in the manner that after incorporation of the chemicals (herbicide and antidote) the containers with the covered seedbed were treated with an initial overhead irrigation equivalent to 0.6 cm rainfall, then subsequently sub-irrigated as required on greenhouse benches.
This example describes experiments designed to investigate the antidotal efficacy of a plurality of antidotes against the herbicidal action of a combination of Herbicide No. 1 and butylate in corn and the prevalent weeds barnyardgrass and velvetleaf. The antidotes used in these experiments were Nos. 1-10, 12, 13 and 15.
The test procedure used in these experiments was that of Procedure II described above. The antidotes were applied to a soil cover layer by pipet after spraying the herbicides onto the soil, followed by incorporation and overhead irrigation.

[2] = test system: corn; test: Example 19, Procedure II: Herbicide No. 1 + ERADICANE EXTRA with added antidotes; type: in vivo; conditions: Herbicide No. 1 + ERADICANE EXTRA + added antidote, highest rates of antidotes and herbicides
Description: as §1, §2, §3
(§4) In the test reported in this example, the herbicidal composition was similar to that used in Example 16 in that Herbicide No. 1 was combined with EPTC (Herbicide No. 4) as a co-herbicide and the antidotes included Nos. 1, 2, 7, 13 and 15. However, in this test the EPTC was introduced as a formulation of ERADICANE (EPTC + the antidote R-25788, i.e., Antidote No. 1) at an application rate of 8.96 kg/ha. Thus, in this test two antidotes were present, viz. R-25788 and one of the auxilliary antidotes, No. 2, 13 and 15.
The test reported in this example was performed in the same manner and with the same antidotes used in Example 18, the only difference being the substitution of the commercial herbicidal product ERADICANE® EXTRA for ERADICANE®. ERADICANE EXTRA is a formulation containing both an antidote, i.e., R-29148 (Antidote No. 5 herein), and an extender, dietholate.

[3] = test system: corn; test: Example 7, Procedure II: Herbicide No. 1 + metolachlor (No. 12) with antidotes; type: in vivo
Description: as §1, §2, §3
In this example, Procedure II described above was followed. The data from the tests in this example is shown in Table 6 and represents averages of duplicate replications.
The tests in this example followed the same procedure and antidotes used in Example 6. However, Herbicide No. 12 (metolachlor) was used as the co-herbicide with Herbicide No. 1.

[4] = test system: corn; test: Example 18, Procedure II: Herbicide No. 1 + ERADICANE (EPTC + R-25788) with auxiliary antidotes; type: in vivo; conditions: Herbicide No. 1 + ERADICANE 8.96 kg/ha, PPI, Table 18
Description: as §1, §2, §3, §4
Test procedures were those of Procedure II above.

[5] = test system: corn; test: Example 11, Procedure II: Herbicide No. 1 + metazachlor (No. 14) with antidotes; type: in vivo; conditions: Herbicides 1 and 14, Table 11
Description: as §1, §2, §3
In this example, yet another α-chloroacetanilide co-herbicide, metazachlor (Herbicide No. 14) was combined with Herbicide No. 1 for investigation of the effect of various safeners on that composition. Metazachlor is the active ingredient in the commercial herbicide BUTISAN® S, used here as a 500 g/L formulation.

[6] = test system: corn; test: Example 25, greenhouse preemergence test: Antidote Nos. 1 and 2 against Herbicide Nos. 1-3; type: in vivo, Corn (Pioneer 3424 variety); conditions: Zea mays, pre-emergence; preemergence; Herbicide No. 3 0.25 G/ha + Antidote No. 1 7.41 G/ha; read-out: corn injury, percent inhibition of growth
Description: The chemicals were tested in both preemergence and post-emergence modes of application. The herbicides were prepared and applied as wettable powders; dichlormid was applied as an emulsifiable concentrate, while the naphthalic anhydride was applied as a coating on the corn seed prior to planting.
(§5) Test data from the preemergence tests are shown in Table 25A and from the post-emergence tests in Table 25B. In the tables, the concentration of chemicals is shown in terms of active ingredient in grams per hectare (G/ha); concentrations of the naphthalic anhydride were not measured per se, but were present as in conventional, normally-coated applications. Corn injury is shown in terms of percent inhibition of growth.

[7] = test system: corn; test: Example 9, Procedure II: Herbicide No. 1 + pretilachlor (No. 13) with antidotes; type: in vivo
Description: as §1, §2, §3
(§6) In this example the safening effect on a composition comprising Herbicide No. 1 and another leading rice herbicide, i.e., Herbicide No. 13, was investigated using the same antidotes and test procedure described in the preceding example. Herbicide No. 13 is pretilachlor, active ingredient used in the commercial rice herbicides RIFIT®, SOFIT® and SOFIT® SUPER.

[8] = test system: corn; test: Example 5, Procedure I: Herbicide No. 1 + alachlor (No. 7) with Antidote Nos. 15 and 16; type: in vivo; conditions: Herbicide No.1 6.72 + No.7 2.24 kg/ha + antidote 2.24 kg/ha
Description: as §1, §2
This example describes tests with Antidote Nos. 15 and 16 to safen Herbicide No. 1 according to Procedure I using corn and the weeds barnyardgrass and velvetleaf as the test plants.
In the tests described in this example, the same procedure described in Example 4 was performed simultaneously therewith and under the same conditions, except that a co-herbicide, alachlor, was included in the same composition with Herbicide No. 1 and Antidote Nos. 15 and 16. Alachlor (Herbicide No. 7 herein) is the active ingredient in the commercial product LASSO® herbicide.

[9] = test system: corn; test: Example 25, greenhouse post-emergence test: Antidote Nos. 1 and 2 against Herbicide Nos. 1-3; type: in vivo, Corn (Pioneer 3424 variety); conditions: Herbicide Nos. 1-3
Description: Additional tests were conducted in the greenhouse in order to evaluate the antidotal efficacy of Antidote Nos. 1 (dichlormid) and 2 (naphthalic anhydride) in protecting corn from the herbicidal activity of Herbicide Nos. 1-3 (i.e., NC-319, NC-319 EX and NC-311, respectively). The chemicals were tested in both preemergence and post-emergence modes of application. The herbicides were prepared and applied as wettable powders; dichlormid was applied as an emulsifiable concentrate, while the naphthalic anhydride was applied as a coating on the corn seed prior to planting.
Corn seeds (Pioneer 3424 variety) were planted in alluvial soil containing compost and fertilizer in pots 12 cm. in diameter. Test chemicals were applied with a spray gun at the spray volume rate of 11.2 l/ha at the time of seeding in the preemergence tests and seven (7) days after seeding in the post-emergence tests, when the check (control) plants were at the 16-20 cm., 3.0-3.2 leaf stage, and naphthalic anhydride coated seed grown plants were at the 14-16 cm., 2.8-3.0 leaf stage.
as §5

[10] = test system: corn; test: Example 13, Procedure II: Herbicide No. 1 + acetochlor (No. 6) with dichloroacetamide antidotes; type: in vivo; conditions: Herbicide Nos. 1 and 6, Table 13
Description: as §1, §2, §3
In this example a plurality of dichloroacetamide antidotes were tested for their safening efficacy against a herbicidal composition comprising Herbicide No. 1 and a co-herbicide, acetochlor (Herbicide No. 6) in corn in the presence of velvetleaf. The procedure used in this example was Procedure II above.

[11] = test system: barnyardgrass (Echinochloa crusgalli); test: Example 9, Procedure II: Herbicide No. 1 + pretilachlor (No. 13) with antidotes; type: in vivo; conditions: Herbicide No.13 2.24 kg/ha alone, no antidote
Description: as §1, §2, §3
(§7) In the series of greenhouse tests described below, for routine screening purposes the herbicide/antidote compositions were tested in crop/weed combinations involving corn as the crop and either or both of the weeds barnyardgrass (Echinochloa crusgalli), a monocotyledonous weed, and velvetleaf (Abutilon theophrasti), a dicotyledonous weed. In the tables below, these weeds are indicated by the symbols "BYG" and "VL", respectively.
as §6

[12] = test system: velvetleaf (Abutilon theophrasti); test: as above; type: in vivo; conditions: Herbicide No.13 2.24 kg/ha alone, no antidote
Description: as §1, §2, §3, §7, §6

O=C(C(Cl)Cl)N1CCCCN(C(=O)C(Cl)Cl)CCC1 [Antidote No. 8, 1,5-Diazacyclononane, 1,5-bis(dichloroacetyl)-]
safening of corn, assessment in words [1]: complete protection against corn injury

O=C(C(Cl)Cl)N1CCOC12CCCCC2 [Antidote No. 7, 1-Oxa-4-azaspiro[4,5]decane, 4-(dichloroacetyl)-]
corn injury [2]: 25% | safening of corn, assessment in words [1]: complete protection against corn injury | % Injury Corn ([3]; Herbicide No.1 0.56 + No.12 3.36 kg/ha + antidote 2.24 kg/ha): 20% | corn injury, assessment in words [4]: slightly lower | safening of corn, assessment in words [5]: outperformed the antidotes (2 and 13) of other chemistries

C=CCN(CC=C)C(=O)C(Cl)Cl [Antidote No. 1, Acetamide, N,N-bis(2-propenyl)-α,α-dichloro]
corn injury [2]: 25% | inhibition at 7.41 g/ha [6]: 43% | safening of corn, assessment in words ([7]; Herbicide Nos. 1 and 13, Table 9): best safening effect across four treatments | % Injury Corn [8]: 50% | safening of corn, assessment in words ([3]; Herbicide Nos. 1 and 12, Table 7): best safening effect across four treatments | safening of corn, assessment in words [5]: outperformed the antidotes (2 and 13) of other chemistries | safening of corn, assessment in words [9]: did not exhibit noticeable safening effect

CC1CN(C(=O)C(Cl)Cl)C(C)(C)O1 (stereo not shown) [Antidote No. 5, Oxazolidine, 3-(dichloroacetyl)-2,2,5-trimethyl-]
safening of corn, assessment in words [10]: Commercial-level safening was exhibited at all rates and combinations

CC1c2ccccc2CCN1C(=O)C(Cl)Cl (stereo not shown) [Antidote No. 12]
safening of corn, assessment in words [1]: complete protection against corn injury

CCCOCCN(C(=O)CCl)c1c(CC)cccc1CC [Herbicide No.13]
% Injury Corn ([7]; Herbicide No.13 2.24 kg/ha alone, no antidote): 0% | % Injury BYG [11]: 100% | % Injury VL [12]: 5%

CC1(C)CN2C(=O)CCC2(C)N(C(=O)C(Cl)Cl)C1 (stereo not shown) [Antidote No. 14, 5-Dichloroacetyl-3,3,6-trimethyl-9-oxo-1,5-diazabicyclo[4.3.0]nonane]
safening of corn, assessment in words [10]: Commercial-level safening was exhibited at all rates and combinations
